Peptide text beside a SMILES is read from it.
Test: Clinical pharmacokinetics of elsiglutide and its metabolites (studies 06-013, TIDE-09-04, TIDE-11-10)
Description: Data on human exposure to elsiglutide generated so far originate from three clinical trials, one performed in healthy subjects (study 06-013) and two in cancer patients (TIDE-09-04, TIDE-11-10). The main objective of the first two studies was the evaluation of the safety, tolerability and maximum tolerated dose (MTD) of ascending elsiglutide doses administered as s.c. (both studies) and i.v. (only study 06-013) bolus injections. In study 06-013 elsiglutide was administered as single i.v. or s.c. bolus, while in study TIDE-09-04 each dose was administered as s.c. bolus on 4 consecutive days. Study TIDE-11-10 was a phase II proof of concept study that mainly evaluated the efficacy of elsiglutide administered as 24 mg daily s.c. bolus injections for 4 consecutive days in preventing CID in patients with colorectal cancer receiving 5-FU based chemotherapy (FOLFOX4 or FOLFIRI regimen). The secondary objectives of all three studies included the evaluation of the pharmacokinetics of elsiglutide and its major metabolites in humans.

CC[C@H](C)[C@H](NC(=O)[C@H](CC(C)C)NC(=O)[C@H](Cc1c[nH]c2ccccc12)NC(=O)[C@H](C)NC(=O)[C@@H](NC(=O)[C@H](Cc1ccccc1)NC(=O)[C@H](CC(=O)O)NC(=O)[C@H](CCCNC(=N)N)NC(=O)[C@H](C)NC(=O)[C@H](C)NC(=O)[C@H](CC(C)C)NC(=O)[C@H](C)NC(=O)[C@H](CC(=O)O)NC(=O)[C@H](CC(C)C)NC(=O)[C@@H](NC(=O)[C@@H](NC(=O)[C@H](CO)NC(=O)[C@H](CC(C)C)NC(=O)[C@H](CCC(=O)O)NC(=O)[C@H](CO)NC(=O)[C@H](CO)NC(=O)[C@H](Cc1ccccc1)NC(=O)[C@H](CO)NC(=O)CNC(=O)[C@H](CCC(=O)O)NC(=O)CNC(=O)[C@@H](N)Cc1c[nH]cn1)[C@@H](C)O)[C@@H](C)CC)[C@@H](C)CC)C(=O)N[C@@H](C)C(=O)N[C@H](C(=O)N[C@@H](CCCCN)C(=O)N[C@H](C(=O)N[C@H](C(=O)N[C@@H](CC(=O)O)C(=O)N[C@@H](CCCCN)C(=O)N[C@@H](CCCCN)C(=O)O)[C@@H](C)O)[C@@H](C)CC)[C@@H](C)O [ZP2712] (H-HGEGSFSSELSTILDALAARDFIAWLIATKITDKK-OH; N-terminus assumed)
exposure to metabolite relative to exposure to the parent ZP1846 (elsiglutide) (Day 1): > 4 fold | half-life (human, plasma): 6 to 9 h | dose dependence of pharmacokinetics (Cmax and AUC increases proportional to dose) (study TIDE-09-04, s.c. on 4 consecutive days): dose independent

From patent publication US20160067311A1, “USE OF ELSIGLUTIDE TO TREAT GASTROINTESTINAL MUCOSITIS INCLUDING CHEMOTHERAPY-INDUCED DIARRHEA” (Helsinn Healthcare SA, priority 2014, published 2016)
